In experiment [1] the test system is acetylated histone H3 in A549 lung adenocarcinoma cells. In words: Acetylated histone H3 in-cell western (ICW) assay. It is filed as cell-based. Particulars: Homo sapiens, 16 h exposure, relative to 40 μM Trichostatin A positive control, read-out: EC50 Ac-histone H3, A549 cells. The procedure:
Acetylated α-Tubulin and Histone H3 in-Cell Western (ICW) Assays
A549 cells were maintained in DMEM (Life Technologies)+10% FBS+2 mM glutamine & penicillin (10 μg/mL) and streptomycin ([…]. 10,000 A549 cells per well were plated into 96 well tissue culture plates (Corning) and incubated at 37° C. overnight in a humidified atmosphere containing 5% CO2 prior to addition of compounds. Compounds (dissolved in 100% DMSO) were diluted into cell culture media at 2× final assay concentration. 2× compound or DMSO (negative control) were added to cells (final DMSO concentration 0.4%). Untreated control wells received media. For acetylated α-tubulin assays, 40 μM scriptaid was used as a positive control. For acetylated histone H3 assays, 40 μM Trichostatin A (TSA) was used as a positive control. Cells were exposed to compound at 37° C. in a humidified atmosphere containing 5% CO2 for 16 h.
Measurement of the impact of compounds on levels of acetylated α-tubulin and histone H3 was performed using specific antibodies and near-infrared immunofluorescent dyes. Briefly, media was removed from wells of assay plates. Cells were washed once with PBS and fixed in 3.7% formaldehyde PBS solution at room temperature for 20 min. Cells were then permeabilised by washing 5 times in 0.1% triton-X-100 PBS at room temperature with gentle agitation for 5 min per wash. Non-specific antibody staining was blocked by the addition of Odyssey blocking buffer (Li-Cor) for 1.5 h at room temperature with gentle agitation. Cells were then incubated with primary antibody (mouse monoclonal anti-acetylated α-tubulin (clone 6-11B-1), Sigma or rabbit polyclonal anti-acetylated histone H3, Millipore) diluted in Odyssey blocking buffer at 4° C. with gentle shaking overnight (no antibody control and secondary antibody only wells were incubated with Odyssey blocking buffer only). Cells were washed five times with 0.1% tween PBS and labelled with secondary antibody (IR dye 800CW-conjugated goat anti mouse IgG or -goat anti rabbit IgG, Li-Cor) and cell stains Sapphire700 (Li-Cor) and Draq5 (Biostatus) diluted in Odyssey blocking buffer at room temperature in the dark with gentle shaking for 1 h (no antibody control wells were incubated with Odyssey blocking buffer only and secondary antibody only with diluted secondary antibody but no cell stains). Cells were washed with 0.1% Tween PBS five times and scanned using a Li-Cor Odyssey SA plate reader in 700 and 800 nm channels. Acetylated α-tubulin or histone H3 signal was normalised to cell number using the cell stain signal. Percentage increase in acetylated α-tubulin or histone H3 after compound treatment over the mean of DMSO treated controls, relative to scriptaid and TSA positive controls, respectively was calculated. EC50 values were calculated using GraphPad Prism software and nonlinear regression with 0% bottom and 100% top constraints.

The next experiment deals with T1, Human HDAC11 (Homo sapiens, UniProt Q96DB2).
T1 construct: Human HDAC11 (full length); His (N); host or cells: baculovirus expression system
T1 sequence (Q96DB2 1-347): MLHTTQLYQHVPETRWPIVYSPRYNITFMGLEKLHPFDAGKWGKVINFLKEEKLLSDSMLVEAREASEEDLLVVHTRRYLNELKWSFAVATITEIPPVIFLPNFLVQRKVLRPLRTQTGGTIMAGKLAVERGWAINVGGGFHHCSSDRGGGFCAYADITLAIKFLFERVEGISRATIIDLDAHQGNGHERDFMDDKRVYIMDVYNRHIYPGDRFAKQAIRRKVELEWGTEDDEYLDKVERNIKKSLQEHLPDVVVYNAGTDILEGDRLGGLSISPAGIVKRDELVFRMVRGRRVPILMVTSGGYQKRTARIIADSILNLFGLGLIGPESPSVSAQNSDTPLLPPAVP
The experiment can be described thus: HDAC11 biochemical assay, class IIa-specific substrate. The note with it: read-out: HDAC Isoform IC50 (nM) 11. The procedure: (§1) Activity against all zinc-dependent HDACs 1 to 11 was assessed by using an acetylated AMC-labeled peptide substrate. The substrate RHKK(Ac)AMC was used for HDAC1, HDAC2, HDAC3, HDAC6 and HDAC10; the substrate used for HDAC8 was RHK(Ac)K(Ac)AMC. Activity against the class IIa HDACs (HDAC4, 5, 7, 9) and HDAC11 was determined using a class IIa-specific substrate, BOC-Lys(trifluoroacetyl)-AMC (“Trifluoroacetyl Lysine”; see Lahm et al, 2007, PNAS, 104, 17335-17340). All assays were based on the AMC-labeled substrate and developer combination.
(§2) The protocol involved a two-step reaction: first, the substrate with the acetylated lysine side chain is incubated with a sample containing HDAC activity, to produce the deacetylated products, which are then digested in the second step by the addition of developer to produce the fluorescent signal proportional to the amount of deacetylated substrates.
Human HDAC11 (full length) (GenBank Accession No. NM_024827) with N-terminal His tag, MW=42.9 kDa, expressed in baculovirus expression system.
(§3) Assay Buffer: 50 mM Tris-HCl, pH8.0, 137 mM NaCl, 2.7 mM KCl, 1 mM MgC2. Before use, 1 mg/mL BSA and DMSO are added.
HDAC11: 5 ng/ul HDAC11 and 50 μMHDAC substrate are in the reaction buffer with 1% DMSO final. Incubate for 30 minutes at 30° C.
(§4) Stage 1: Deacetylation of substrate by incubation of HDAC enzymes with compounds
(§5) Stage 2: Development by addition of Developer to digest the deacetylated substrate, and generate the fluorescent colour; Detection: 360/460 Ex/Em

The next experiment addresses T2, Human HDAC10 (Homo sapiens, UniProt Q969S8).
T2 construct: Human HDAC10 (a.a. 1-481); GST (N); His (C); host or cells: baculovirus expression system
T2 sequence (Q969S8 1-481): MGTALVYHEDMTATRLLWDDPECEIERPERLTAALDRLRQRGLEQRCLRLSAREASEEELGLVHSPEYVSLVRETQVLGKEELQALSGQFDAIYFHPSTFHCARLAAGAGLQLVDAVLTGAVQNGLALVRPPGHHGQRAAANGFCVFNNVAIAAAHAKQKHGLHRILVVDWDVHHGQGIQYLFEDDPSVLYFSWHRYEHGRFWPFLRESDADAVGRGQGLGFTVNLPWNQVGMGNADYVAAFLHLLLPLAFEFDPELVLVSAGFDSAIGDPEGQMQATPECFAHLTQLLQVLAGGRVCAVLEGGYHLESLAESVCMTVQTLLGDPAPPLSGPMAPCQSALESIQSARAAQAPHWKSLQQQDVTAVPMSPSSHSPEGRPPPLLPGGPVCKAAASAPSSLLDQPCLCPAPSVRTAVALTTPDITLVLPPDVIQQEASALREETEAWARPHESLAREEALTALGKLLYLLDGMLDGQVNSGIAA
The experiment can be described thus: HDAC10 biochemical assay, AMC-labeled peptide substrate. Particulars: read-out: HDAC Isoform IC50 (nM) 10. The procedure:
as §1, §2
Human HDAC10 (a.a. 1-481), GenBank Accession No. NM_032019 with N-terminal GST tag and C-terminal His tag, MW=78 kDa, expressed in baculovirus expression system.
as §3
HDAC10: 12 ng/ul HDAC10 and 50 μM HDAC substrate are in the reaction buffer with 1% DMSO final. Incubate for 2 hours at 30° C.
as §4, §5

A value given as a limit tells only on which side of the number the result lay.

Usually EC50 stands for the concentration needed to bring the measured effect to its halfway point. What is called IC50 is the concentration that inhibits the measured activity by half. As to `FC(F)(F)c1nc(-c2ccc(CN(c3cnccn3)c3cnccn3)s2)no1` [Example BA, N-(Pyrazin-2-yl)-N-({5-[5-(trifluoromethyl)-1,2,4-oxadiazol-3-yl]thiophen-2-yl}methyl)pyrazin-2-amine], in experiment [1], the 50% effective concentration (EC50) is at least 10 µM. In addition, the IC50 on Human HDAC11 and at Human HDAC10 was above 10000 nM each time.
On to `Cc1cnc(N(Cc2ccc(-c3noc(C(F)(F)F)n3)s2)c2cnccn2)cn1` [Example BH, 5-Methyl-N-(pyrazin-2-yl)-N-({5-[5-(trifluoromethyl)-1,2,4-oxadiazol-3-yl]thiophen-2-yl}methyl)pyrazin-2-amine], for which the EC50 in experiment [1] was at least 10 µM. Besides, the IC50 at Human HDAC11 and at Human HDAC10 was above 10000 nM in each case.
Take `NC(=O)c1ccc(N(Cc2ccc(-c3noc(C(F)(F)F)n3)s2)c2cnccn2)nn1` [Example DQ, 6-[(Pyrazin-2-yl)({5-[5-(trifluoromethyl)-1,2,4-oxadiazol-3-yl]thiophen-2-yl}methyl)amino]pyridazine-3-carboxamide]: the EC50 in experiment [1] is at least 10 µM. In addition, the half-inhibitory concentration (IC50) on Human HDAC11 and at Human HDAC10 was above 10000 nM throughout.
Regarding `COC1CN(C(=O)c2ccc(N(Cc3ccc(-c4noc(C(F)(F)F)n4)s3)c3cnccn3)nn2)C1` [Example DR, 6-(3-Methoxyazetidine-1-carbonyl)-N-(pyrazin-2-yl)-N-({5-[5-(trifluoromethyl)-1,2,4-oxadiazol-3-yl]thiophen-2-yl}methyl)pyridazin-3-amine], the concentration giving a half-maximal response (EC50) in experiment [1] was at least 10 µM. Besides, the 50% inhibitory concentration (IC50) on Human HDAC11 and at Human HDAC10 was above 10000 nM throughout.
Take `O=C(c1ccc(N(Cc2ccc(-c3noc(C(F)(F)F)n3)s2)c2cnccn2)nn1)N1CCOCC1` [Example DS, 6-(Morpholine-4-carbonyl)-N-(pyrazin-2-yl)-N-({5-[5-(trifluoromethyl)-1,2,4-oxadiazol-3-yl]thiophen-2-yl}methyl)pyridazin-3-amine]: the EC50 in experiment [1] was at least 10 µM. Moreover, the concentration for half-maximal inhibition (IC50) at Human HDAC11 and on Human HDAC10 was above 10000 nM throughout.
Take `O=C(O)c1cnnc(N(Cc2ccc(-c3noc(C(F)(F)F)n3)s2)c2cnccn2)c1` [Example DW, 6-[(Pyrazin-2-yl)({5-[5-(trifluoromethyl)-1,2,4-oxadiazol-3-yl]thiophen-2-yl}methyl)amino]pyridazine-4-carboxylic acid]: the 50% effective concentration (EC50) in experiment [1] was at least 10 µM. For the same compound, the half-maximal inhibitory concentration (IC50) on Human HDAC11 and at Human HDAC10 was above 10000 nM throughout.
For `NC(=O)c1cnnc(N(Cc2ccc(-c3noc(C(F)(F)F)n3)s2)c2cnccn2)c1` [Example DX, 6-[(Pyrazin-2-yl)({5-[5-(trifluoromethyl)-1,2,4-oxadiazol-3-yl]thiophen-2-yl}methyl)amino]pyridazine-4-carboxamide], the EC50 in experiment [1] was at least 10 µM. The IC50 at Human HDAC11 and at Human HDAC10 was above 10000 nM in each case.
Turning to `CNC(=O)c1cnnc(N(Cc2ccc(-c3noc(C(F)(F)F)n3)s2)c2cnccn2)c1` [Example DY, N-Methyl-6-[(pyrazin-2-yl)({5-[5-(trifluoromethyl)-1,2,4-oxadiazol-3-yl]thiophen-2-yl}methyl)amino]pyridazine-4-carboxamide], in experiment [1], the concentration for a half-maximal effect (EC50) is at least 10 µM. For the same compound, the IC50 on Human HDAC11 and at Human HDAC10 was above 10000 nM in each case.
`COC1CN(C(=O)c2cnnc(N(Cc3ccc(-c4noc(C(F)(F)F)n4)s3)c3cnccn3)c2)C1` [Example DZ, 5-(3-Methoxyazetidine-1-carbonyl)-N-(pyrazin-2-yl)-N-({5-[5-(trifluoromethyl)-1,2,4-oxadiazol-3-yl]thiophen-2-yl}methyl)pyridazin-3-amine]: in experiment [1], the EC50 is at least 10 µM. Besides, the half-inhibitory concentration (IC50) on Human HDAC11 and on Human HDAC10 was above 10000 nM throughout.
In the case of `O=C(c1cnnc(N(Cc2ccc(-c3noc(C(F)(F)F)n3)s2)c2cnccn2)c1)N1CCCC1` [Example EA, N-(Pyrazin-2-yl)-5-(pyrrolidine-1-carbonyl)-N-({5-[5-(trifluoromethyl)-1,2,4-oxadiazol-3-yl]thiophen-2-yl}methyl)pyridazin-3-amine], in experiment [1], the EC50 was at least 10 µM. Besides, the IC50 on Human HDAC11 and at Human HDAC10 was above 10000 nM in each case.
For the compound `COc1cncc(N(Cc2ccc(-c3noc(C(F)(F)F)n3)s2)c2cc(C(F)(F)F)cnn2)n1` [Example EN, N-(6-Methoxypyrazin-2-yl)-5-(trifluoromethyl)-N-({5-[5-(trifluoromethyl)-1,2,4-oxadiazol-3-yl]thiophen-2-yl}methyl)pyridazin-3-amine], the EC50 in experiment [1] was at least 10 µM.
Consider `FC(F)(F)c1cnnc(N(Cc2ccc(-c3noc(C(F)(F)F)n3)s2)c2cccnn2)c1` [Example ER, N-(Pyridazin-3-yl)-5-(trifluoromethyl)-N-({5-[5-(trifluoromethyl)-1,2,4-oxadiazol-3-yl]thiophen-2-yl}methyl)pyridazin-3-amine], for which the EC50 in experiment [1] was at least 10 µM.
As for `FC(F)(F)c1cnnc(N(Cc2ccc(-c3noc(C(F)(F)F)n3)s2)c2cc(C(F)(F)F)cnn2)c1` [Example EU, 5-(Trifluoromethyl)-N-({5-[5-(trifluoromethyl)-1,2,4-oxadiazol-3-yl]thiophen-2-yl}methyl)-N-[5-(trifluoromethyl)pyridazin-3-yl]pyridazin-3-amine], the EC50 in experiment [1] was at least 10 µM.

(Values after patent publication US20210038607A1, “OXADIAZOLYLTHIOPHENE DERIVATIVES USEFUL AS HISTONE DEACETYLASE INHIBITORS” (Karus Therapeutics Limited, priority 2018, published 2021).)
